Laboratory results: patent US6426401B1, “Pharmaceutical composition containing an inhibitor of immunoglobulin-receptor interaction” (Tecnogen S.C.p.A., priority 1996, dated 2002)
In brackets after ≈: the same amount, converted by molar mass.

Tests used:
SRBC-IgG and U937 FcRs = assay type: cell-based, human; conditions: for IC50 (inhibitor amount necessary to reduce at 50% the rosettes formation between SRBC-IgG and U937 FcRs): U937/SRBC-IgG 1:100, 30 minutes at 25° C.
Text: The trial has been carried on L-PAM and D-PAM peptides with the assay of rosettes formation inhibition between sheep red blood cells (SRBC) derivatized with human IgG and U937 cells (prepared as described above). Rosettes formation assay has been performed in accordance with the protocol of Lund J. et al. (FASEB J., 9, 115-119, 1995) modified as follows. The derivatized SRBC have been prepared using SRBC-tanned (tannic acid pretreated SRBC, Sigma Cat. No. R-8128) and human IgG (Sigma Cat. No. I-4506) following the provider protocol. […] No. A-9418) in DPBS (Sigma, Cat. No. D-5527). […] After 30 minutes at 25° C. rosettes have been counted, and more particularly U937 having 4 or more SRBC bound on the surface. In these conditions it has been discovered that, on the average, the 45% of treated U937 gave rosettes formation. In the above described conditions, it has been performed the inhibition assay of rosettes formation by using L-PAM , D-PAM, CON-L and CON-D peptides. A further control assay has been carried on by using IgG as inhibition positive control and not derivatized SRBC as negative control.

[1] = system: interaction IgE-receptor (FcεR of local mastcells); experiment: Passive cutaneous anaphylaxis assay (blueing lesions, Evan's Blue); assay type: in vivo; conditions: rat; for Extension of blueing lesion (%): intradermal with ascitic fluid IgE; for inhibition of IgE-receptor interaction in vivo (in words): passive cutaneous anaphylaxis
Protocol: Rat ascit fluid containing ovalbumin antigen specific IgE and with a total immunoglobulins amount of 4 mg/ml, scaled diluted in PBS, has been injected by intradermal route in a male rat of CD specie.
Intradermal injection of 50 μl volume have been done on the shaved back of the animal.
In this way it has been allowed ascitic fluid IgE to bind FcεR of local mastcells, sensitizing them.
After 24 h, 1 mg of ovalbumin and Evan's Blue dye at 2% concentration in 1 ml of PBS have been injected by endovenous route.
After 15 minutes it has been observed the presence on the rat back derma of a colored area whose extension and color intensity are proportional to the IgE antigen-specific amount injected together with the ascitic fluid.
The blueing lesions are given by the injected antigen that bind to the IgE and determined the degranulation and the release of mediators in the site of intradermal injection. Consequently a local increase of vascular permeability and a dye leak from vessel has been observed.
For the inhibition assay, the ascitic fluid containing IgE and properly diluted has been incubated with L-PAM and D-PAM peptides in total immunoglobulins-peptides molar ratio 1:2,1:20,1:200, 1:2000, 1:20.000, and 1:200.000, […]
Separate experiments for the two peptides have been performed.
In CD1 rats, 50 μl of the fluid ascitic-peptide mixture at various concentrations have been injected intradermally.
As a positive control it has been used a 50 μl injection of ascitic fluid free of peptide.
After 24 h the antigen, together with Evans's Blue dye, has been injected as described above.
After 15 minutes it has been observed that the intensity and extension of the blueing lesions on the rat back were […] to the amounts of the injected peptide and were completely absent at highest peptide concentrations.

[2] = system: interaction between human IgG and receptors Fcγ (U937 plasma-membrane); experiment: IgG-FcR binding inhibition on U937 plasma-membrane (ELISA)
Text: For this purpose, it has been developed an inhibition assay of the binding between human immunoglobulins (Ig) IgG and IgA and their receptors on U937 human cell line plasma-membrane.
The IgG receptors FcgRI and FcgRII (Looney R. et al., J. Immunol., 136, 1641, 1986) and IgA receptors Fca (Monteiro R. C., et al., J. Exp.Med., 171, 597-613, 1990) are constitutively express by this cell line.
Microplates for ELISA determination (Falcon Cat. No. 3912) have been treated with plasma-membrane obtained from U937 cells in variable concentrations between 0.1 and 10 μg/ml (referred to the total proteins in the plasma-membrane preparation) in PBS, 100 μl/well, for 15 hours at 4° C.
After 1 hour and 30′ at room temperature, the plates have been washed 5 times with PBS-T (PBS-Tween 0.05%) and each well has been filled with 100 μl of solutions containing biotinilated Ig at variable concentrations between 0.02 and 2 μg/ml in PBS-BSA 0.5%.
After incubation of 1 h 30′ at 37° C., a solution of streptavidin derivatized with peroxidase has been added (Sigma, Cat. No. S-5512) diluted 1:1000 in PBS-BSA 0.5%, 100 μl/well. After 1 h incubation at 37° C., the plates have been washed 5 times with PBS-T and each well has been filled with 100 μl of a 2,2′-azino-bis(3-ethylbenzthiazoline-6-sulfonic acid) (Sigma, Cat. No. A-9941) in phosphate buffer pH 5 and 0.012% hydrogen peroxide.
After about 30′ the absorbance at 405 nm of each well has been determined by a plate reader (Merck, Mod. Mios) and the results are shown in TABLE 1.
The inhibition Ig/Fc assay has been carried out using U937 plasma-membrane at 10 μg/ml concentration for immobilization on plate and biotinilated Ig at 0.4 μg/ml concentration.
IgGs have been incubated with peptides of this invention (L-PAM, D-PAM and P-PAM) and two controls, namely peptides Arg-Thr-Tyr in L configuration (named CON-L) and in D configuration (named CON-D), at concentrations between 1 to 500 μg/ml (Table 2), whereas for IgA the inhibition assays have been carried out in similar conditions with L-PAM and CON-L peptides (Table 3).
B/B0 means the inhibition percentage calculated dividing the values, in terms of OD, obtained in presence of competitors, by those obtained in absence of competitors.

[3] = system: interaction between human IgA and receptors Fcα (U937 plasma-membrane); experiment: IgA/FcR binding inhibition on U937 plasma-membrane (ELISA)
Text: For this purpose, it has been developed an inhibition assay of the binding between human immunoglobulins (Ig) IgG and IgA and their receptors on U937 human cell line plasma-membrane. The IgG receptors FcgRI and FcgRII (Looney R. et al., J. Immunol., 136, 1641, 1986) and IgA receptors Fca (Monteiro R. C., et al., J. Exp.Med., 171, 597-613, 1990) are constitutively express by this cell line. Microplates for ELISA determination (Falcon Cat. No. 3912) have been treated with plasma-membrane obtained from U937 cells in variable concentrations between 0.1 and 10 μg/ml (referred to the total proteins in the plasma-membrane preparation) in PBS, 100 μl/well, for 15 hours at 4° C. […] After incubation of 1 h 30' at 37° C., a solution of streptavidin derivatized with peroxidase has been added (Sigma, Cat. No. […] No. A-9941) in phosphate buffer pH 5 and 0.012% hydrogen peroxide. After about 30' the absorbance at 405 nm of each well has been determined by a plate reader (Merck, Mod. Mios) and the results are shown in TABLE 1. […] B/B0 has the above mentioned meaning.

[4] = inhibitor amount 0.025 micrograms (first line)
[5] = inhibitor amount 0.025 micrograms
[6] = inhibitor amount 2.5 micrograms
[7] = inhibitor amount 250 micrograms
[8] = inhibitor amount 2500 micrograms

Molecule	inhibition of rosettes formation (in words) (SRBC-IgG and U937 FcRs)	Extension of blueing lesion (%) [1, 4]	Extension of blueing lesion (%) [1, 5]	Extension of blueing lesion (%) [1, 6]	Extension of blueing lesion (%) ([1]; inhibitor amount 25 micrograms)	Extension of blueing lesion (%) [1, 7]	Extension of blueing lesion (%) [1, 8]	inhibition of IgE-receptor interaction in vivo (in words) [1]	inhibition of IgG-FcR interaction (in words) [2]	inhibition of IgA-FcR interaction (in words) [3]	IC50 (inhibitor amount necessary to reduce at 50% the rosettes formation between SRBC-IgG and U937 FcRs) (SRBC-IgG and U937 FcRs)
C[C@H](O)[C@@H](NC(=O)[C@H](N)CCCNC(=N)N)C(=O)N[C@H](Cc1ccc(O)cc1)C(=O)NCCCC[C@H](NC(=O)[C@@H](Cc1ccc(O)cc1)NC(=O)[C@H](NC(=O)[C@H](N)CCCNC(=N)N)[C@H](C)O)C(=O)NCCCC[C@H](NC(=O)[C@H](CCCCNC(=O)[C@@H](Cc1ccc(O)cc1)NC(=O)[C@H](NC(=O)[C@H](N)CCCNC(=N)N)[C@H](C)O)NC(=O)[C@@H](Cc1ccc(O)cc1)NC(=O)[C@H](NC(=O)[C@H](N)CCCNC(=N)N)[C@H](C)O)C(=O)NCC(=O)O [D-PAM, (H2N-D-Arg-D-Thr-D-Tyr-CO)4-(Lys)2-Lys-Gly-OH]	capable of inhibiting rosettes formation	60%	37%	33%	20%	15%	0%	able to inhibit in a dose dependent manner the interaction IgE-receptor up to a complete disappearance of the inflammatory reaction	produce, in a dose-dependent manner, the same interaction level as IgG		
C[C@@H](O)[C@H](NC(=O)[C@@H](N)CCCNC(=N)N)C(=O)N[C@@H](Cc1ccc(O)cc1)C(=O)NCCCC[C@H](NC(=O)[C@H](Cc1ccc(O)cc1)NC(=O)[C@@H](NC(=O)[C@@H](N)CCCNC(=N)N)[C@@H](C)O)C(=O)NCCCC[C@H](NC(=O)[C@H](CCCCNC(=O)[C@H](Cc1ccc(O)cc1)NC(=O)[C@@H](NC(=O)[C@@H](N)CCCNC(=N)N)[C@@H](C)O)NC(=O)[C@H](Cc1ccc(O)cc1)NC(=O)[C@@H](NC(=O)[C@@H](N)CCCNC(=N)N)[C@@H](C)O)C(=O)NCC(=O)O [L-PAM, (H2N-L-Arg-L-Thr-L-Tyr-CO)4-(Lys)2-Lys-Gly-OH]	capable of inhibiting rosettes formation	65%	50%	35%	0%	0%	0%	able to inhibit in a dose dependent manner the interaction IgE-receptor up to a complete disappearance of the inflammatory reaction	produce, in a dose-dependent manner, the same interaction level as IgG	specifically inhibit the interaction IgA-FcR	78 µg/mL (≈ 36.4 µM)
(H2N-L-Arg(Pmc)-L-Thr(OtBu)-L-Tyr(OtBU)-CO)4-(Lys)2-Lys-Gly-OH [P-PAM]									produce, in a dose-dependent manner, the same interaction level as IgG	specifically inhibit the interaction IgA-FcR	
Arg-Thr-Tyr [CON-L, reference compound]	unable to inhibit this interaction								unable to inhibit this interaction	unable to produce the same effect	No Inhibition
bovine serum albumin [BSA, reference compound]									unable to inhibit this interaction	unable to produce the same effect	
